Reference: US20240208992A1, “MACROCYCLES AS CFTR MODULATORS” (Idorsia Pharmaceuticals Ltd, priority 2021, published 2024)

Target: human F508del-CFTR (Homo sapiens, UniProt P13569, DEL508-508)
Experiment: F508del-CFTR cell surface expression (corrector activity), DiscoveRx ß-galactosidase complementation chemiluminescence assay in recombinant U2OS cell line;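 also: U2OS cells co-expressing ProLink-tagged F508del-CFTR and a membrane-anchored enzyme acceptor, where more surface CFTR restores β-galactosidase activity measured by chemiluminescence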
Settings: for EC50: EC50, F508del-CFTR cell surface expression, geomean values; for Emax: U2OS, arithmetic mean values
[1] = U2OS cells, 16h compound incubation
[2] = in relation to Emax of corrector lumacaftor (=100%)
[3] = U2OS cell line, 16h compound incubation
[4] = in relation to the Emax of the corrector lumacaftor (=100%), U2OS cell line, 16h compound incubation

Chain of human F508del-CFTR (P13569 with tags, fused parts or gaps DEL508-508): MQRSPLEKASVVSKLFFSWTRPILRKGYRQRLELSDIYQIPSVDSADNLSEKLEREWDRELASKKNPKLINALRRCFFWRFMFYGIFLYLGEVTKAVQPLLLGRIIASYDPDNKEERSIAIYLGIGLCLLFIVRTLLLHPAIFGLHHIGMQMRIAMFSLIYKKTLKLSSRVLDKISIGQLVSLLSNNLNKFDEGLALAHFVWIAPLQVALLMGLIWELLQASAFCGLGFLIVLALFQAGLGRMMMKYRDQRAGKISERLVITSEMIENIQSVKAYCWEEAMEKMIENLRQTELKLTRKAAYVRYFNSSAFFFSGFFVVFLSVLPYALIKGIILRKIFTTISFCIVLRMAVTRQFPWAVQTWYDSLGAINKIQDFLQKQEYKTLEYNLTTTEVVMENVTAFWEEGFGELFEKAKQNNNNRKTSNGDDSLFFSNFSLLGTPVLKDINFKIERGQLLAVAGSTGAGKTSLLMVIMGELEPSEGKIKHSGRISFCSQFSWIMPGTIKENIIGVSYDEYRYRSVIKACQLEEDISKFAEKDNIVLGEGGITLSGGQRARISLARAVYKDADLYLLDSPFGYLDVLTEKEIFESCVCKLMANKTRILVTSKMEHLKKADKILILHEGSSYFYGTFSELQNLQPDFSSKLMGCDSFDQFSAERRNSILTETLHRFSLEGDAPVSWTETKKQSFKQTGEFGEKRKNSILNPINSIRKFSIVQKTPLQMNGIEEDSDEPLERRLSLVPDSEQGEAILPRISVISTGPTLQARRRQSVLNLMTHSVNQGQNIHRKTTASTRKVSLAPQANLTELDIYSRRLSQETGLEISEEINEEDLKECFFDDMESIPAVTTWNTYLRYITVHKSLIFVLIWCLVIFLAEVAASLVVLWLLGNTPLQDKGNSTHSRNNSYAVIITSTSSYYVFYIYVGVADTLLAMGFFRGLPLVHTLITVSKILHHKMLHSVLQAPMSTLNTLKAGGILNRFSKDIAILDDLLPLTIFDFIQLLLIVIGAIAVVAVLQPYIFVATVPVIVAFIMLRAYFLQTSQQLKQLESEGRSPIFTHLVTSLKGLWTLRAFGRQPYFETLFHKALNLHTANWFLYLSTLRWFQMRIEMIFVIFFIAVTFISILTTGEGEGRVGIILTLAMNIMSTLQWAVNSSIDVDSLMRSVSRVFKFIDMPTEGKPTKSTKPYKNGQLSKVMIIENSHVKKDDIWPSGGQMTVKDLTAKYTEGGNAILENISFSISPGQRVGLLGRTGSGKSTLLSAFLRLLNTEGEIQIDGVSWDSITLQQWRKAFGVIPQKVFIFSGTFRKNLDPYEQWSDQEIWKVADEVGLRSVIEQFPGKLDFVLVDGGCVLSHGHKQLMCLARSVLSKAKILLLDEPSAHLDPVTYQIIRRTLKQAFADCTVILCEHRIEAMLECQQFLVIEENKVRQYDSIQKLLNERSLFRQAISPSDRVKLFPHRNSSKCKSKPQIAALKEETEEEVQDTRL

| Structure (SMILES) | EC50 [1] [nM] | Emax [2] [%] | EC50 [3] [nM] | Emax [4] [%] |
| --- | --- | --- | --- | --- |
| CC(C)C[C@H]1C(=O)N2CCCC[C@@H]2C(=O)N[C@H](Cc2ccccc2)COc2cnc3ccc(F)cc3c2C(=O)N[C@H](C(=O)NCCc2cc(C(F)(F)F)no2)CC(=O)N1C [Example 560, (9S,13S,19aR,22R)-22-benzyl-5-fluoro-13-isobutyl-12-methyl-7,11,14,20-tetraoxo-N-(2-(3-(trifluoromethyl)isoxazol-5-yl)ethyl)-7,8,9,10,11,12,13,14,17,18,19,19a,20,21,22,23-hexadecahydro-16H-pyrido[2′,1′:6,7][1]oxa[4,7,10,14]tetraazacycloheptadecino[17,16-c]quinoline-9-carboxamide] | 114 | 249 | – | – |
| CCOc1cccc(CCNC(=O)[C@@H]2CC(=O)N(C)[C@@H](CC(C)C)C(=O)N3CCN(C4CC4)C[C@@H]3C(=O)N[C@H](Cc3ccccc3)COc3ccc4nc(C)oc4c3C(=O)N2)c1 [Example 418, (8S,12S,18aR,21R)-21-benzyl-17-cyclopropyl-N-(3-ethoxyphenethyl)-12-isobutyl-4,11-dimethyl-6,10,13,19-tetraoxo-6,7,8,9,10,11,12,13,16,17,18,18a,19,20,21,22-hexadecahydro-15H-oxazolo[4′,5′:5,6]benzo[1,2-p]pyrazino[2,1-f][1]oxa[4,7,10,14]tetraazacycloheptadecine-8-carboxamide] | 276 | 259 | – | – |
| COc1cccc(CCNC(=O)[C@@H]2CC(=O)N(C)[C@@H](CC(C)C)C(=O)N3CC=CC[C@@H]3C(=O)N[C@H](Cc3ccccc3)COc3ccc4ccccc4c3C(=O)N2)c1 [Example 376, (4aR,7R,18S,22S)-7-benzyl-22-isobutyl-N-(3-methoxyphenethyl)-21-methyl-5,16,20,23-tetraoxo-4,4a,5,6,7,8,16,17,18,19,20,21,22,23-tetradecahydro-1H-naphtho[1,2-p]pyrido[2,1-f][1]oxa[4,7,10,14]tetraazacycloheptadecine-18-carboxamide] | – | – | 156 | 284 |
| [2H]C([2H])([2H])Oc1cccc2c1C(=O)N[C@H](C(=O)NCCc1ccc3c(c1)OCO3)CC(=O)N(C)[C@@H](CC(C)C)C(=O)N(CCC1CCCCC1)CC(=O)N[C@H](Cc1ccccc1)CO2 [Example 242, (3R,9S,13S)-N-(2-(benzo[d][1,3]dioxol-5-yl)ethyl)-3-benzyl-7-(2-cyclohexylethyl)-9-isobutyl-16-(methoxy-d3)-10-methyl-5,8,11,15-tetraoxo-2,3,4,5,6,7,8,9,10,11,12,13,14,15-tetradecahydrobenzo[p][1]oxa[4,7,10,14]tetraazacycloheptadecine-13-carboxamide] | – | – | 177 | 232 |
| COCCOCCNC(=O)[C@@H]1CC(=O)N(C)[C@@H](CC(C)C)C(=O)N(CCC2CCCCC2)CC(=O)N[C@H](Cc2ccccc2)COc2cccc(OC)c2C(=O)N1 [Example 22, (3R,9S,13S)-3-benzyl-7-(2-cyclohexylethyl)-9-isobutyl-16-methoxy-N-(2-(2-methoxyethoxy)ethyl)-10-methyl-5,8,11,15-tetraoxo-2,3,4,5,6,7,8,9,10,11,12,13,14,15-tetradecahydrobenzo[p][1]oxa[4,7,10,14]tetraazacycloheptadecine-13-carboxamide] | – | – | 600 | 104 |
| COc1cc(CCNC(=O)[C@@H]2CC(=O)N(C)[C@@H](CC(C)C)C(=O)N3CCN(CC(C)C)C[C@@H]3C(=O)N[C@H](Cc3ccccc3)COc3ccc4ccccc4c3C(=O)N2)cc(OC)c1 [Example 613, (4aR,7R,18S,22S)-7-benzyl-N-(3,5-dimethoxyphenethyl)-3,22-diisobutyl-21-methyl-5,16,20,23-tetraoxo-2,3,4,4a,5,6,7,8,16,17,18,19,20,21,22,23-hexadecahydro-1H-naphtho[1,2-p]pyrazino[2,1-f][1]oxa[4,7,10,14]tetraazacycloheptadecine-18-carboxamide] | 82 | 312 | – | – |
